Target: T1, human SSAO T2 (Met211-Asn763), C-terminal 6xHIS tag (Homo sapiens, UniProt Q16853)
T1 construct: T2 (Met211-Asn763) Representing the Putative Catalytic Domain; expressed in transfected cells; cell lysate
T1 sequence (Q16853 211-763): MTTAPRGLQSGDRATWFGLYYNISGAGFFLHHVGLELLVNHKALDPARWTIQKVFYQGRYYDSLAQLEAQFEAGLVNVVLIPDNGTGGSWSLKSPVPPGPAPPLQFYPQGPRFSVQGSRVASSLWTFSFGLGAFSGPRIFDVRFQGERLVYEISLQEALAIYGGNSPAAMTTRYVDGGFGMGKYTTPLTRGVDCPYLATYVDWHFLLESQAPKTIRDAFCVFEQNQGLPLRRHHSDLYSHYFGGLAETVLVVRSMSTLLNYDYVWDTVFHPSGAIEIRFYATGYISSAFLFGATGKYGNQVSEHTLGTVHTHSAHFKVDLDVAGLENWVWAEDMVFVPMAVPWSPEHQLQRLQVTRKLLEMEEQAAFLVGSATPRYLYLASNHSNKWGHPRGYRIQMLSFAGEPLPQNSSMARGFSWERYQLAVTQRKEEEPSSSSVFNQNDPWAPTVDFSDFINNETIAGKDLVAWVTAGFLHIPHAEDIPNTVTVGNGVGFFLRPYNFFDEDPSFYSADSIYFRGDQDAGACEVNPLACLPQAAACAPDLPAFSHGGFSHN
Assay: Benzylamine stability in lysate of cells expressing T2 SSAO with C-terminal 6xHIS tag, LC/MS/MS
Type: in vitro ADME
Description: 4) T2 (Met211-Asn763) Representing the Putative Catalytic Domain.
The expression constructs were prepared by cloning these PCR products into the pCDNA5-FRT-To-DEST vector (Invitrogen, Gateway System™). The forward and reverse DNA sequence of each construct was confirmed including expressed sequences and at least 100 base pairs either side of this. Stable cell lines for Flp-In CHO, Flp-In CHO T-Rex, and Flp-In HEK 293 (Invitrogen, Flp-In system™) were generated using these 6 constructs according to manufacturer's instructions. Cells were co-transfected with the regulatory vector, pOG44, and each of the pCDNA5-FRT-To-DEST constructs using Lipfectamine (Invitrogen) according to manufacturer's instructions. Thus, 18 cell lines were generated: CHO Flp-In full-length SSAO; CHO Flp-In full-length SSAO with C-terminal 6×HIS tag; CHO Flp-In T1 SSAO; CHO Flp-In T1 SSAO with C-terminal 6×HIS tag; CHO Flp-In T2 SSAO; CHO Flp-In T2 SSAO with C-terminal 6×HIS tag; CHO T-Rex Flp-In full-length SSAO; CHO T-Rex Flp-In full-length SSAO with C-terminal 6×HIS tag; CHO T-Rex Flp-In T1 SSAO; CHO T-Rex Flp-In T1 SSAO with C-terminal 6×HIS tag; CHO T-Rex Flp-In T2 SSAO; CHO Flp-In T2 SSAO with C-terminal 6×HIS tag; HEK 293 Flp-In full-length SSAO; HEK 293 Flp-In full-length SSAO with C-terminal 6×HIS tag; HEK 293 Flp-In T1 SSAO; HEK 293 Flp-In T1 SSAO with C-terminal 6×HIS tag; HEK 293 Flp-In T2 SSAO; HEK 293 Flp-In T2 SSAO with C-terminal 6×HIS tag.
Adherent CHO cells were cultured at 37° C., 5% CO2 in media containing Ham's F12, 10% fetal bovine serum, 2 mM L-glutamine, 1% Penicillin/Streptomycin, 300 μM hygromycin B. Adherent HEK 293 cells were cultured at 37° C., 5% CO2 in D-MEM (high glucose), 10% fetal bovine serum, 2 mM L-glutamine, and 200 μM hygromycin B. Stable transformants were identified by loss of zeocin resistance. Once the cells were 80% confluent, SSAO expression was induced by the addition of Tetracycline to 1 μg/mL. Following 18 hours, the cells were harvested using a trypsin treatment of 3 minutes, at room temperature. Cells were washed 3 times in phosphate buffered saline before flash freezing in liquid nitrogen.
For the preparation of cell lysate for activity testing, frozen cell pellets were resuspended in lysate buffer containing 10 mM Tris-HCl (pH 7.2), 150 mM NaCl, 1.5 mM MgCl2, 1% v/v NP-40 and incubated for 15 minutes on ice. Lysate was cleared by centrifugation 800×g for 10 minutes, 4° C. and stored in aliquots at −80° C. until use. Proteins were determined using Pierce Coomassie Protein Reagent, according to manufacturer's instructions.
For each assay run, 1 mL of cell lysate (1.5 mg/mL protein) was mixed with benzylamine to 2000 ng/mL final concentration. At each corresponding time point, […] the incubation mixture was transferred to a microcentrifuge tube (1.7 mL) and mixed with 50 μL of acetonitrile. The tubes were vortex mixed briefly to ensure complete mixing and then centrifuged at 10,000×g for 5 minutes. The supernatant was removed and 50 μL was transferred to an autosampler vial and mixed with 50 μL of water before LC/MS/MS analysis. Benzylamine remaining in the lysate was analyzed with LC/MS/MS method.
LC/MS/MS analysis was performed with a PE Sciex API 3000 mass spectrometer under the following conditions listed below and in Tables 1 and 2: […]

Benzylamine Remaining (%) (CHO Flp-In T-Rex lysate, 0 min): 100%
Benzylamine Remaining (%) (CHO Flp-In T-Rex lysate, 10 min): 100%
Benzylamine Remaining (%) (CHO Flp-In T-Rex lysate, 2 h): 97%
Benzylamine Remaining (%) (CHO Flp-In lysate, 0 min): 100%
Benzylamine Remaining (%) (CHO Flp-In lysate, 10 min): 108%
Benzylamine Remaining (%) (CHO Flp-In lysate, 2 h): 102%
Benzylamine Remaining (%) (HEK293 lysate, 0 min): 100%
Benzylamine Remaining (%) (HEK293 lysate, 10 min): 100%
Benzylamine Remaining (%) (HEK293 lysate, 2 h): 117%
SMILES: NCc1ccccc1 [Benzylamine]

From US8883410B2, “Method for determining the stability of organic methyleneamines in the presence of semicarbazide-sensitive amine oxidase” (Sanofi, priority 2007, dated 2014)
